Results from ChEMBL document CHEMBL1133870, “Two novel cytotoxic and antimicrobial triterpenoids from Pseudolarix kaempferi” (Bioorg Med Chem Lett, 2001).
≈ marks a conversion by molar mass, not a printed value.

Experiments:
Escherichia coli = assay: Compound was tested for minimum inhibitory concentration against Escherichia coli […]; type: functional
Pseudomonas aeruginosa = assay: Compound was tested for minimum inhibitory concentration against Pseudomonas aeruginosa […]; type: functional
Micrococcus luteus = assay: Compound was tested for minimum inhibitory concentration against Micrococcus luteus ATCC 9341; type: functional
Staphylococcus aureus = assay: Compound was tested for minimum inhibitory concentration against Staphylococcus aureus ATCC 25923; type: functional
A549 = assay: Compound was tested for its cytotoxicity against A 549 cell line; type: functional, cell-based; conditions: Homo sapiens
P388 = assay: Compound was tested for its cytotoxicity against P388 cell line; type: functional, cell-based; conditions: Mus musculus

| MIC (Escherichia coli) [µM] | MIC (Pseudomonas aeruginosa) [µM] | MIC (Micrococcus luteus) [µM] | MIC (Staphylococcus aureus) [µM] | SMILES | IC50 (A549) [µM] | IC50 (P388) [µM] |
| --- | --- | --- | --- | --- | --- | --- |
| > 780 | > 780 | 10 (≈ 2.56 µg/mL) | 19 (≈ 4.87 µg/mL) | C=C[C@@](C)(/C=C/c1ccc(O)cc1)CCC=C(C)C [BAKUCHIOL] | – | – |
| > 750 | > 750 | 48 (≈ 12.8 µg/mL) | 48 (≈ 12.8 µg/mL) | C=CCc1ccc(O)c(-c2cc(CC=C)ccc2O)c1 [MAGNOLOL] | – | – |
| – | – | – | – | C[C@H](CC(=O)O)[C@]1(C)CC=C2C3=CCC4C(C)(C)[C@H](O)CC[C@]4(C)[C@@H]3CC[C@]21C (stereo partly specified) | 60 | 55 |
| 107 (≈ 49.9 µg/mL) | > 215 | 13 (≈ 6.07 µg/mL) | 27 (≈ 12.6 µg/mL) | C[C@H](Cc1cc(C(=O)O)co1)[C@]1(C)CC=C2C3=CCC4C(C)(C)[C@H](O)CC[C@]4(C)[C@@H]3CC[C@]21C (stereo partly specified) | 54 | 50 |
